In data set [1] the test system is testicular co-culture: spermatogonial cells (C18-4), Sertoli cells (TM4), Leydig cells (TM3). As to conditions: for concentration with statistically significant decrease in viability (p<0.05): 48 h exposure.
Data set [2] relates to reproductive system. The following applies: cited from earlier work.
Data set [3] relates to Spermatogonial cells (C18-4). As to the kind of experiment: cells. In kind it is cell-based, mouse.
A further data set concerns Leydig cells (TM3). As to the kind of experiment: cells. It is filed as cell-based, mouse.
A further data set relates to Sertoli cells (TM4). The data set can be described thus: cells. In kind it is cell-based, mouse.
Data set [4] deals with reproductive system. As to conditions: cited from earlier work. The source holds these as a separate data set.
Data set [5] relates to testicular co-culture: spermatogonial cells (C18-4), Sertoli cells (TM4), Leydig cells (TM3). As to the kind of experiment: cells. The following applies: Mus musculus.
[6] abbreviates: co-culture, 48 h treatment, FIG. 6.
Setting [7] is: Mus musculus, 24 h, read-out: IC50.
The mark [8] stands for this setting: Mus musculus, 48 h, read-out: IC50.
[9] abbreviates: Mus musculus, Leydig, 24 h, read-out: IC50.
[10] abbreviates: Mus musculus, Leydig, 48 h, read-out: IC50.
The mark [11] stands for this setting: based on ToxCast database and literature search.
[12] abbreviates: Spermatogonial Cell, 24 h, highest concentration tested assigned as IC50 where viability did not decrease 50%, read-out: IC50.
Setting [13] is: Spermatogonial Cell, 48 h, highest concentration tested assigned as IC50 where viability did not decrease 50%, read-out: IC50.
[14] abbreviates: Leydig Cell, 24 h, highest concentration tested assigned as IC50 where viability did not decrease 50%, read-out: IC50.
Where [15] appears, read: Leydig Cell, 48 h, highest concentration tested assigned as IC50 where viability did not decrease 50%, read-out: IC50.
Where [16] appears, read: Sertoli Cell, 24 h, highest concentration tested assigned as IC50 where viability did not decrease 50%, read-out: IC50.
Where [17] appears, read: Sertoli Cell, 48 h, highest concentration tested assigned as IC50 where viability did not decrease 50%, read-out: IC50.
Where [18] appears, read: Co-culture, 48 h, highest concentration tested assigned as IC50 where viability did not decrease 50%.
Setting [19] is: Co-culture, 24 h, highest concentration tested assigned as IC50 where viability did not decrease 50%.

Where “and” joins values, the source holds several entries; their conditions need not be identical. Equal values may be shown once. Read-outs that look alike come from different tables or passages of the source. A value given as a limit tells only on which side of the number the result lay.

For the compound `COC(=O)c1ccccc1C(=O)OC` [DMP], in data set [1] (setting [6]), the “effect on cell viability (NR uptake), in words” value (shortened to “effect on cell viability”) is recorded as “no or slight decrease of cell viability”. Further, the “developmental toxicity of phthalates (literature)” value in the data set on reproductive system [2] (in vivo) is listed as “developmental non-toxic”.

With `O=C1NS(=O)(=O)c2ccccc21` [SAC], the “effect on cell viability” value in data set [1] (setting [6]) was “did not cause a significant decrease in cell viability”.

Consider Sodium arsenite [As], for which the IC50 in data set [3] (read-out: IC50) is 6.9 µM and 6.8 µM; in the data set with Leydig cells (TM3) (read-out: IC50) it was 20.3 µM and 16.1 µM; with Sertoli cells (TM4) (read-out: IC50), 12 µM and 6.9 µM; in data set [1], 15 µM and 10 µM. The “effect on cell viability” value in data set [1] is on record as “most toxic”. The “In vivo Reproductive Toxicity” value in the data set on reproductive system [2] (in vivo) is listed as “+”. Moreover, the “reproductive LOAEL” value in the data set on reproductive system [4] (rat, in vivo) is recorded as 8 mg/kg/day.

Turning to `C[C@H]1CCCC(=O)CCC/C=C/c2cc(O)cc(O)c2C(=O)O1` [ZEA, Zearalenone], the concentration for half-maximal inhibition (IC50) in data set [3] (setting [7]) is 3.8 µM; in data set [3] (setting [8]), 2 µM; in the data set with Leydig cells (TM3) (setting [9]) it was 3.4 µM; in the data set on Leydig cells (TM3) (setting [10]), 2.5 µM; with Sertoli cells (TM4) (setting [7]), 3.1 µM; in the data set on Sertoli cells (TM4) (setting [8]), 2.5 µM. In addition, the IC50 in data set [5] (24 h) is 7.2 µM; in data set [5] (48 h) it was 4.1 µM; in data set [5] (read-out: IC50 values (mostly)), at most 100 µM. In addition, the “In vivo Reproductive Toxicity” value with reproductive system [2] (setting [11]) was “+”. Besides, the “reproductive LOAEL” value in the data set on reproductive system [4] (in rats) was 1 mg/kg/day.

As for `CCOP(=S)(OCC)Oc1nc(Cl)c(Cl)cc1Cl` [CHL, chlorpyrifos], the IC50 in data set [3] (setting [7]) came out at 118 µM; in data set [3] (setting [8]) it was 96 µM; in the data set with Leydig cells (TM3) (setting [9]), 142 µM; in the data set on Leydig cells (TM3) (setting [10]), 120 µM; in the data set on Sertoli cells (TM4) (setting [7]), 212 µM; in the data set on Sertoli cells (TM4) (setting [8]) it was 120 µM. The IC50 is 91.5 µM in data set [5] (24 h), 89 µM in data set [5] (48 h) and at most 100 µM in data set [5] (read-out: IC50 values (mostly)). The “effect on cell viability” value in data set [1] (setting [6]) is on record as “significant dose-dependent decrease of cell viability”. Further, the “In vivo Reproductive Toxicity” value in the data set with reproductive system [2] (setting [11]) is reported as “+”.

Turning to `CCCCOC(=O)c1ccccc1C(=O)OCc1ccccc1` [BBP, Benzyl butyl phthalate], the IC50 (in data set [3] (setting [7]); in data set [3] (setting [8]); with Leydig cells (TM3) (setting [9]); with Leydig cells (TM3) (setting [10]); in the data set on Sertoli cells (TM4) (setting [7]); in the data set on Sertoli cells (TM4) (setting [8])) was at least 400 µM in each case. Moreover, the IC50 in data set [5] (24 h) was found to be 885 µM; in data set [5] (48 h), 539 µM. In addition, the “concentration with statistically significant decrease in viability (p<0.05)” value in data set [1] (co-culture, FIG. 6) was determined as 200 µM. Further, in data set [1] (setting [6]), the “effect on cell viability” value is on record as “dose-dependent decrease of cell viability”. In addition, in the data set on reproductive system [2] (setting [11]), the “In vivo Reproductive Toxicity” value was “+”.

Turning to `CC/C(=C(/CC)c1ccc(O)cc1)c1ccc(O)cc1` [DES, Diethylstilbestrol], the “In vivo Reproductive Toxicity” value in the data set on reproductive system [2] (setting [11]) is reported as “+”. Further, the “reproductive LOAEL” value in the data set with reproductive system [4] (in rats) was 10 mg/kg/day.

In the case of `O=C(c1ccc2c(c1)C(=O)OC2=O)c1ccc2c(c1)C(=O)OC2=O` [BEN, Benzophenone-3,3′,4,4′-tetracarboxylic dianhydride], the “effect on cell viability” value in data set [1] (setting [6]) was “significant dose-dependent decrease of cell viability”. Besides, in the data set with reproductive system [2] (setting [11]), the “In vivo Reproductive Toxicity” value is reported as “+”.

Take `O=P1(N(CCCl)CCCl)NCCCO1` (stereo not shown) [CYC, Cyclophosphamide]: the IC50 was over 5000 µM in data set [3] (Mus musculus, 24 h); over 5000 µM in data set [3] (Mus musculus, 48 h); over 5000 µM in the data set on Leydig cells (TM3) (Mus musculus, Leydig, 24 h); over 5000 µM in the data set on Leydig cells (TM3) (Mus musculus, Leydig, 48 h); over 5000 µM in the data set on Sertoli cells (TM4) (Mus musculus, 24 h); over 5000 µM with Sertoli cells (TM4) (Mus musculus, 48 h). For the same compound, the IC50 in data set [5] (24 h) and in data set [5] (48 h) was over 5000 µM in each case. Besides, the “effect on cell viability” value in data set [1] is recorded as “did not cause a significant decrease in cell viability”. In data set [1], the “in vitro call as reproductive toxicant” value is reported as “negative”. For the same compound, the “In vivo Reproductive Toxicity” value in the data set with reproductive system [2] (in vivo) is on record as “+”. Besides, the “call in in vivo models” value in the data set on reproductive system [2] (in vivo) is on record as “positive”.

As to `CCCCOC(=O)c1ccccc1C(=O)OCCCC` [DBP, Dibutyl phthalate], the IC50 was at least 400 µM in data set [3] (setting [7]); 371 µM in data set [3] (setting [8]); at least 400 µM with Leydig cells (TM3) (setting [9]); at least 400 µM with Leydig cells (TM3) (setting [10]); at least 400 µM with Sertoli cells (TM4) (setting [7]); at least 400 µM in the data set on Sertoli cells (TM4) (setting [8]). Besides, the IC50 in data set [5] (24 h) was 437 µM; in data set [5] (48 h) it was 388 µM. Besides, the “concentration with statistically significant decrease in viability (p<0.05)” value in data set [1] (co-culture, FIG. 6) is 200 µM. In addition, the “effect on cell viability” value in data set [1] (setting [6]) is listed as “dose-dependent decrease of cell viability”. For the same compound, the “In vivo Reproductive Toxicity” value in the data set on reproductive system [2] (setting [11]) was “+”.

`CCCC(CCC)C(=O)[O-].[Na+]` [VPA, Valproic acid sodium salt]: the IC50 in data set [3] (setting [7]) was over 20000 µM; in data set [3] (setting [8]), 6000 µM; in the data set with Leydig cells (TM3) (setting [9]), over 20000 µM; with Leydig cells (TM3) (setting [10]), 9480 µM; with Sertoli cells (TM4) (setting [7]), over 20000 µM; in the data set with Sertoli cells (TM4) (setting [8]) it was 7610 µM. Also, the IC50 in data set [5] (24 h) was over 20000 µM; in data set [5] (48 h) it was 8850 µM. Further, the “effect on cell viability” value in data set [1] (setting [6]) is reported as “statistically significant decreases in cell viability”. The “In vivo Reproductive Toxicity” value in the data set with reproductive system [2] (setting [11]) is “+”.

In the case of TCEP, the IC50 in data set [3] (setting [12]) came out at 5110 µM; in data set [3] (setting [13]), 3680 µM. In data set [1] (setting [6]), the “effect on cell viability” value is “statistically significant decreases in cell viability”.

Consider `NC(=O)NO` [HU], for which the half-maximal inhibitory concentration (IC50) was found to be 300 µM in data set [3] (setting [13]); 600 µM in the data set with Leydig cells (TM3) (setting [14]); 200 µM with Leydig cells (TM3) (setting [15]); 396 µM in the data set on Sertoli cells (TM4) (setting [16]); 150 µM in the data set on Sertoli cells (TM4) (setting [17]); 200 µM in data set [1] (setting [18]). For the same compound, the “effect on cell viability” value in data set [1] (setting [6]) is “statistically significant decreases in cell viability”.

On to `Oc1cc(Cl)ccc1Oc1ccc(Cl)cc1Cl` [TCS], for which the IC50 in data set [3] (setting [12]) amounted to 62.7 µM; in data set [3] (setting [13]), 57.3 µM; in the data set on Leydig cells (TM3) (setting [14]), 135 µM; in the data set on Leydig cells (TM3) (setting [15]) it was 80 µM; with Sertoli cells (TM4) (setting [16]), 81 µM; with Sertoli cells (TM4) (setting [17]), 72.7 µM. For the same compound, the IC50 amounted to 121 µM in data set [1] (setting [19]) and 76.5 µM in data set [1] (setting [18]). For the same compound, in data set [1] (setting [6]), the “effect on cell viability” value is “significant dose-dependent decrease of cell viability”.

With `CCCCCOC(=O)c1ccccc1C(=O)OCCCCC` [DPP], the IC50 in data set [3] (setting [13]) was found to be 372 µM; in the data set on Leydig cells (TM3) (setting [15]), 244 µM; in data set [1] (setting [19]), 550 µM; in data set [1] (setting [18]), 352 µM. The “effect on cell viability” value in data set [1] (setting [6]) is “dose-dependent decrease of cell viability”.

As for `CCOC(=O)c1ccccc1C(=O)OCC` [DEP, Diethylphthalate], the IC50 (in data set [3] (setting [7]); in data set [3] (setting [8]); with Leydig cells (TM3) (setting [9]); with Leydig cells (TM3) (setting [10]); in the data set on Sertoli cells (TM4) (setting [7]); in the data set with Sertoli cells (TM4) (setting [8])) was over 400 µM in each case. The IC50 in data set [5] (24 h) and in data set [5] (48 h) was over 400 µM each time. Besides, the “effect on cell viability” value in data set [1] (setting [6]) is recorded as “no or slight decrease of cell viability”. The “In vivo Reproductive Toxicity” value in the data set on reproductive system [2] (setting [11]) is “−”. Moreover, the “developmental toxicity of phthalates (literature)” value in the data set with reproductive system [2] (in vivo) is “developmental non-toxic”.

`OB(O)O` [BA, Boric acid]: the IC50 in data set [3] (Mus musculus, 24 h) is over 5000 µM; in data set [3] (Mus musculus, 48 h), 3580 µM; in the data set on Leydig cells (TM3) (Mus musculus, Leydig, 24 h), over 5000 µM; in the data set with Leydig cells (TM3) (Mus musculus, Leydig, 48 h), over 5000 µM; with Sertoli cells (TM4) (Mus musculus, 24 h) it was over 5000 µM; in the data set on Sertoli cells (TM4) (Mus musculus, 48 h) it was over 5000 µM. For the same compound, the half-inhibitory concentration (IC50) in data set [5] (24 h) and in data set [5] (48 h) was over 5000 µM in each case. For the same compound, the “effect on cell viability” value in data set [1] was “statistically significant decreases in cell viability”. The “in vitro call as reproductive toxicant” value in data set [1] is “negative”. Besides, the “In vivo Reproductive Toxicity” value in the data set on reproductive system [2] (in vivo) was “+”. Besides, in the data set with reproductive system [2] (in vivo), the “call in in vivo models” value is “positive”.

As a reminder, the IC50 is the concentration that inhibits the measured activity by half.

Source of the values: US20180371408A1, “CELL CULTURES AND METHODS OF USE” (priority 2017, published 2018).
